# Data as given in ChEMBL document CHEMBL5055685, “Discovery of the First Potent IDO1/IDO2 Dual Inhibitors: A Promising Strategy for Cancer Immunotherapy” (J Med Chem, 2021).
# The source made the active and inactive calls. No cut-off for these calls is given here.
# What was measured:
# [1] = biological target: Myosin-IIIa (Homo sapiens) (UniProt Q8NEV4); assay: Inhibition of MYO3A (unknown origin) at 1 uM
# [2] = biological target: Tyrosine-protein kinase JAK1 (Homo sapiens) (UniProt P23458); assay: Inhibition of JAK1 (unknown origin) at 1 uM
# Mus musculus [3] = assay: In vivo inhibition of TDO in BALB/c mouse xenografted with human HCT-116 cells assessed as suppression of TDO expression in tumor by immunohistochemical assay; format: functional, organism-based
# [4] = biological target: Mitogen-activated protein kinase 7 (Homo sapiens) (UniProt Q13164); assay: Inhibition of ERK5 (unknown origin) at 1 uM
# [5] = biological target: Mitogen-activated protein kinase kinase kinase 12 (Homo sapiens) (UniProt Q12852); assay: Inhibition of DLK (unknown origin) at 1 uM
# Mus musculus [6] = assay: In vivo inhibition of IDO1/IDO2 in BALB/c mouse xenografted with human HCT-116 cells assessed as downregulation of Foxp3 mRNA expression in tumor by quantitative RT-PCR analysis; format: functional, organism-based
# [7] = biological target: Serine/threonine-protein kinase D1 (Homo sapiens) (UniProt Q15139); assay: Inhibition of PKCmu (unknown origin) at 1 uM
# [8] = biological target: Ephrin type-A receptor 3 (Homo sapiens) (UniProt P29320); assay: Inhibition of EPHA3 (unknown origin) at 1 uM
# [9] = biological target: Homeodomain-interacting protein kinase 1 (Homo sapiens) (UniProt Q86Z02); assay: Inhibition of HIPK1 (unknown origin) at 1 uM
# Homeodomain-interacting protein kinase 1 (Homo sapiens), sequence (Q86Z02 whole entry, looked up): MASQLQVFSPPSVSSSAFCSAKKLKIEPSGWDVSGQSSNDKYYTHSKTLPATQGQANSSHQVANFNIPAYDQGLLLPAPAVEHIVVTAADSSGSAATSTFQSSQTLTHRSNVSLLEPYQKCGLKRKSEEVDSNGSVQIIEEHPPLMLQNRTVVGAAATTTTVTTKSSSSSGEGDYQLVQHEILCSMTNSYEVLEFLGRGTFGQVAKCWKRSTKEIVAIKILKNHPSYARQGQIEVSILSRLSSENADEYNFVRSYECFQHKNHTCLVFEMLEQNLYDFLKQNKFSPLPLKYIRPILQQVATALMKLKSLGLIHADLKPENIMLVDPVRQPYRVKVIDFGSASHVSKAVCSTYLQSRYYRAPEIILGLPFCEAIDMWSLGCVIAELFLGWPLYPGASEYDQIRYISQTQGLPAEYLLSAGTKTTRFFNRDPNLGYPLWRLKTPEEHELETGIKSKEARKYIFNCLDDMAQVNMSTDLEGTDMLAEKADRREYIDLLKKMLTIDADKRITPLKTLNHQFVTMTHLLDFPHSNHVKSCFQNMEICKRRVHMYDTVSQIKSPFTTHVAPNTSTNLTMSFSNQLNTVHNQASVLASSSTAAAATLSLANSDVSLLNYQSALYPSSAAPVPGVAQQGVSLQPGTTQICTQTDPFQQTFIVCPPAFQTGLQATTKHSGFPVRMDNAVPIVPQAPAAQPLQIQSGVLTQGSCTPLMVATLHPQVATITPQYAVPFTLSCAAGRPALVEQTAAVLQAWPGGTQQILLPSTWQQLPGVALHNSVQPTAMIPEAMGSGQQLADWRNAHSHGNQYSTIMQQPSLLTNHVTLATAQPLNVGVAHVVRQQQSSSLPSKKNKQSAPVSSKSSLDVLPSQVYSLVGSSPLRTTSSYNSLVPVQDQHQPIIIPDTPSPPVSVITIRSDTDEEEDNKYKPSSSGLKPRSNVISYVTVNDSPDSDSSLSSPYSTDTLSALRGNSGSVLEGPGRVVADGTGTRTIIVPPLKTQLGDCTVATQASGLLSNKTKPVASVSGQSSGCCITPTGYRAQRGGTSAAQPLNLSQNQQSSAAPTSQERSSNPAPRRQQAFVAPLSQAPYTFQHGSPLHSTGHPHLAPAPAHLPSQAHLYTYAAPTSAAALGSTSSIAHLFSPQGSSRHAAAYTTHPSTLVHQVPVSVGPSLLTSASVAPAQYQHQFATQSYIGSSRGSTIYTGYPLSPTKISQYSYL
# [10] = biological target: Serine/threonine-protein kinase SIK2 (Homo sapiens) (UniProt Q9H0K1); assay: Inhibition of SIK2 (unknown origin) at 1 uM
# [11] = biological target: Tyrosine-protein kinase Yes (Homo sapiens) (UniProt P07947); assay: Inhibition of YES (unknown origin) at 1 uM
# [12] = biological target: Inhibitor of nuclear factor kappa-B kinase subunit alpha (Homo sapiens) (UniProt O15111); assay: Inhibition of IKKalpha (unknown origin) at 1 uM
# [13] = biological target: CDK6/cyclin D3 (Homo sapiens) (UniProt P30281+Q00534); assay: Inhibition of CDK6/cyclin-D3 (unknown origin) at 1 uM; format: protein-complex assay
# [14] = biological target: Casein kinase I isoform delta (Homo sapiens) (UniProt P48730); assay: Inhibition of CK1D (unknown origin) at 1 uM
# [15] = biological target: Kinase suppressor of Ras 2 (Homo sapiens) (UniProt Q6VAB6); assay: Inhibition of KSR2 (unknown origin) at 1 uM
# [16] = biological target: Serine/threonine-protein kinase 26 (Homo sapiens) (UniProt Q9P289); assay: Inhibition of MST4 (unknown origin) at 1 uM
# [17] = biological target: Serine/threonine-protein kinase N3 (Homo sapiens) (UniProt Q6P5Z2); assay: Inhibition of PKN3 (unknown origin) at 1 uM
# CT26 = assay: Antitumor activity against mouse CT26 cells implanted in BALB/c mouse assessed as tumor growth inhibition at 50 mg/kg, ip bid for 28 days by vernier caliper method relative to control; format: functional; details: CT26, 672 h, time 28 day, read-out: TGI
# [18] = biological target: Mitogen-activated protein kinase kinase kinase 11 (Homo sapiens) (UniProt Q16584); assay: Inhibition of MLK3 (unknown origin) at 1 uM
# [19] = biological target: Tau-tubulin kinase 2 (Homo sapiens) (UniProt Q6IQ55); assay: Inhibition of TTBK2 (unknown origin) at 1 uM
# [20] = biological target: Non-receptor tyrosine-protein kinase TYK2 (Homo sapiens) (UniProt P29597); assay: Inhibition of TYK2 (unknown origin) at 1 uM
# [21] = biological target: Serine/threonine-protein kinase PAK 6 (Homo sapiens) (UniProt Q9NQU5); assay: Inhibition of PAK6 (unknown origin) at 1 uM
# [22] = biological target: Casein kinase I isoform gamma-2 (Homo sapiens) (UniProt P78368); assay: Inhibition of CK1gamma2 (unknown origin) at 1 uM
# [23] = Apparent permeability across basolateral to apical side in human Caco-2 cells; format: ADME, cell-based
# [24] = biological target: Tyrosine-protein kinase ABL2 (Homo sapiens) (UniProt P42684); assay: Inhibition of ABL2 (unknown origin) at 1 uM
# [25] = biological target: Mitogen-activated protein kinase kinase kinase kinase 4 (Homo sapiens) (UniProt O95819); assay: Inhibition of HGK (unknown origin) at 1 uM
# [26] = biological target: Proto-oncogene tyrosine-protein kinase receptor Ret (Homo sapiens) (UniProt P07949); assay: Inhibition of RET (unknown origin) at 1 uM
# Proto-oncogene tyrosine-protein kinase receptor Ret (Homo sapiens), sequence (P07949 whole entry): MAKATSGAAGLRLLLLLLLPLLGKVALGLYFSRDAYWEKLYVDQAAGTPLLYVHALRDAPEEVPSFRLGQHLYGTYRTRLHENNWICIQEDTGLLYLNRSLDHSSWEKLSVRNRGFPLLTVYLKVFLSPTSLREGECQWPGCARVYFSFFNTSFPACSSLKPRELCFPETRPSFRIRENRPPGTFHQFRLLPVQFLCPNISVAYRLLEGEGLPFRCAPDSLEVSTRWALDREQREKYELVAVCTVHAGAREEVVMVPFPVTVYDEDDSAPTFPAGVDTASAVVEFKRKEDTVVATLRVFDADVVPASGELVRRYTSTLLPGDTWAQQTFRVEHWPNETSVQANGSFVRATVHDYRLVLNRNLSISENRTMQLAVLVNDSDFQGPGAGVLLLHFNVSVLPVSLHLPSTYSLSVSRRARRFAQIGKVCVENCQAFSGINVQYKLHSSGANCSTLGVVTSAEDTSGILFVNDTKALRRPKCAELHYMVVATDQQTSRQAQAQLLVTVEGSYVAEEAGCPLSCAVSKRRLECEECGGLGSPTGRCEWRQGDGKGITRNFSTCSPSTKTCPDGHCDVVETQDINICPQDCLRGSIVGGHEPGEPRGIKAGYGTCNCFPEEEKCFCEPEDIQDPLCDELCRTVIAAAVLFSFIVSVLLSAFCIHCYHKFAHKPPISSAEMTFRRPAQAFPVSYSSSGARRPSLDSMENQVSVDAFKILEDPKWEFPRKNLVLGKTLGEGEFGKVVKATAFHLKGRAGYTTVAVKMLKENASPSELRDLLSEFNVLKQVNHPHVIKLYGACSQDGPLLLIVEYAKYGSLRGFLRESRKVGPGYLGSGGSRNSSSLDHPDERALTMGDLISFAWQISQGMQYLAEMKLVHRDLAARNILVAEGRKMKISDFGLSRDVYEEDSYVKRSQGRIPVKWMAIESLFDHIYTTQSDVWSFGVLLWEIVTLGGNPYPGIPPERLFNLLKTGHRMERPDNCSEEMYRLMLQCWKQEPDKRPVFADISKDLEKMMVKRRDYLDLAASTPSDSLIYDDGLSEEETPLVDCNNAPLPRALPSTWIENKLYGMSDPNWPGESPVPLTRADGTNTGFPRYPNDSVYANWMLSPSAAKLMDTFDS
# [27] = biological target: Indoleamine 2,3-dioxygenase 1 (Mus musculus) (UniProt P28776); assay: In vivo inhibition of IDO1 in BALB/c mouse xenografted with human HCT-116 cells assessed as suppression of IDO1 mRNA expression in tumor by quantitative RT-PCR analysis; format: functional, organism-based
# [28] = biological target: Aurora kinase B (Homo sapiens) (UniProt Q96GD4); assay: Inhibition of Aurora B (unknown origin) at 1 uM
# Aurora kinase B (Homo sapiens), sequence (Q96GD4 whole entry): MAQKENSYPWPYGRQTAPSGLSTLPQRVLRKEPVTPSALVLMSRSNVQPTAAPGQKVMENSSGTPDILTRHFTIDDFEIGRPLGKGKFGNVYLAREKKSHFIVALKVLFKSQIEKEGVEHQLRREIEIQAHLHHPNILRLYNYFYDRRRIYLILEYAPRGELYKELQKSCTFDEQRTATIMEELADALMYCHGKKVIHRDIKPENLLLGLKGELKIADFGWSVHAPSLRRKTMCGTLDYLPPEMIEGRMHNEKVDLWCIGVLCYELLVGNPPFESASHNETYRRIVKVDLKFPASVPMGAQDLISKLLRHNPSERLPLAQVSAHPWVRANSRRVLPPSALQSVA
# [29] = biological target: Serine/threonine-protein kinase PAK 1 (Homo sapiens) (UniProt Q13153); assay: Inhibition of PAK1 (unknown origin) at 1 uM
# [30] = biological target: Mitogen-activated protein kinase kinase kinase 7 (Homo sapiens) (UniProt O43318); assay: Inhibition of TAK1 (unknown origin) at 1 uM
# [31] = biological target: Homeodomain-interacting protein kinase 2 (Homo sapiens) (UniProt Q9H2X6); assay: Inhibition of HIPK2 (unknown origin) at 1 uM
# [32] = biological target: Mitogen-activated protein kinase 13 (Homo sapiens) (UniProt O15264); assay: Inhibition of p38delta (unknown origin) at 1 uM
# [33] = biological target: CDK2/Cyclin O (Homo sapiens) (UniProt P24941+P22674); assay: Inhibition of CDK2/cyclin-O (unknown origin) at 1 uM; format: protein-complex assay
# [34] = biological target: Mitogen-activated protein kinase 15 (Homo sapiens) (UniProt Q8TD08); assay: Inhibition of ERK7 (unknown origin) at 1 uM
# Mitogen-activated protein kinase 15 (Homo sapiens), sequence (Q8TD08 whole entry): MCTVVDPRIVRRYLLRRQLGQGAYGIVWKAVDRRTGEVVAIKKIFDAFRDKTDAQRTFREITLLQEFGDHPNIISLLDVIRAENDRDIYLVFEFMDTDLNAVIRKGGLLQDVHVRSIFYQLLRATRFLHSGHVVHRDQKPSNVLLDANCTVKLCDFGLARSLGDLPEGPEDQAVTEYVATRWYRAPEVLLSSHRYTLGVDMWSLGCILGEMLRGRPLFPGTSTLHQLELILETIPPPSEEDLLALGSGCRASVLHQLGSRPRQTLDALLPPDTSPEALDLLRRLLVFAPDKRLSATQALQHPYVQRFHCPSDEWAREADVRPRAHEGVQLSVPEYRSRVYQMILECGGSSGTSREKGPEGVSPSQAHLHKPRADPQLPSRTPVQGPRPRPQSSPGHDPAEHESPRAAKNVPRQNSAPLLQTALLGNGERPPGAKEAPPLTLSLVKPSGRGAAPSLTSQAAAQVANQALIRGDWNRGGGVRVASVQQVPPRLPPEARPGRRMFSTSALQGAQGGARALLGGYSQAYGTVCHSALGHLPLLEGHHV
# [35] = biological target: Protein kinase C theta type (Homo sapiens) (UniProt Q04759); assay: Inhibition of PKCtheta (unknown origin) at 1 uM
# [36] = biological target: Dual specificity mitogen-activated protein kinase kinase 6 (Homo sapiens) (UniProt P52564); assay: Inhibition of MKK6 (unknown origin) at 1 uM
# [37] = biological target: Activated CDC42 kinase 1 (Homo sapiens) (UniProt Q07912); assay: Inhibition of ACK1 (unknown origin) at 1 uM
# Activated CDC42 kinase 1 (Homo sapiens), sequence (Q07912 whole entry, looked up): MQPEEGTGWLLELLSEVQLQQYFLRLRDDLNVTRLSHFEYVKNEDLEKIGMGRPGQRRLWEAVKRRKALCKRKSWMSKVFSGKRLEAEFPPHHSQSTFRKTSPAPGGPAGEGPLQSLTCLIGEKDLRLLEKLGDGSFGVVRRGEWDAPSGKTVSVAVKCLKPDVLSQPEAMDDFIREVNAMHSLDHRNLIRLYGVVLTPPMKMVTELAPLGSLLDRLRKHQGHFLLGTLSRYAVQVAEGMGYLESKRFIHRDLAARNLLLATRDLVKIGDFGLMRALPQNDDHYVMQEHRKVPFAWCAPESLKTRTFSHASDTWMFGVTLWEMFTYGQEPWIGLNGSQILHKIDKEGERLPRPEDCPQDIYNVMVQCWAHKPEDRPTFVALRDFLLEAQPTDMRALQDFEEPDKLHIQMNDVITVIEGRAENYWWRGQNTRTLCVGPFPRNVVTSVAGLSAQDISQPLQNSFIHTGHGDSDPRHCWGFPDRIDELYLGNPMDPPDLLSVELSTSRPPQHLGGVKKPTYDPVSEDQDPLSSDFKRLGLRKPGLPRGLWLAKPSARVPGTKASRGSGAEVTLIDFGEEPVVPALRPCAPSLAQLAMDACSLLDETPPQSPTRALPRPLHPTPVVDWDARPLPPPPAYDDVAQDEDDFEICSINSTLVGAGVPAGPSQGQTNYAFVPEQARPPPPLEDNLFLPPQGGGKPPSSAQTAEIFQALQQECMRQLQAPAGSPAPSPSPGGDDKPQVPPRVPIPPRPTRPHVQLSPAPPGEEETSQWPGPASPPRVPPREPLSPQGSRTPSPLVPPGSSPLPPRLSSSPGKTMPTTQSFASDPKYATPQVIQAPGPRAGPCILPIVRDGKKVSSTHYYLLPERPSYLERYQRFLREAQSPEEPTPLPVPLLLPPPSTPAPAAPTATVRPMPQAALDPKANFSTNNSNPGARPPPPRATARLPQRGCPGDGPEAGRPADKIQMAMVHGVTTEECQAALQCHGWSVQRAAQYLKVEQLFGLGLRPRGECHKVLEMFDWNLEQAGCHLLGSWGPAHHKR
# [38] = Metabolic stability in mouse liver microsomes assessed as rate constant; format: ADME, Microsome
# [39] = biological target: Calcium/calmodulin-dependent protein kinase type IV (Homo sapiens) (UniProt Q16566); assay: Inhibition of CAMK4 (unknown origin) at 1 uM
# [40] = biological target: Tyrosine-protein kinase TXK (Homo sapiens) (UniProt P42681); assay: Inhibition of TXK (unknown origin) at 1 uM
# [41] = biological target: Protein kinase C beta type (Homo sapiens) (UniProt P05771); assay: Inhibition of PKCb2 (unknown origin) at 1 uM
# Protein kinase C beta type (Homo sapiens), sequence (P05771 2-671 limits assumed): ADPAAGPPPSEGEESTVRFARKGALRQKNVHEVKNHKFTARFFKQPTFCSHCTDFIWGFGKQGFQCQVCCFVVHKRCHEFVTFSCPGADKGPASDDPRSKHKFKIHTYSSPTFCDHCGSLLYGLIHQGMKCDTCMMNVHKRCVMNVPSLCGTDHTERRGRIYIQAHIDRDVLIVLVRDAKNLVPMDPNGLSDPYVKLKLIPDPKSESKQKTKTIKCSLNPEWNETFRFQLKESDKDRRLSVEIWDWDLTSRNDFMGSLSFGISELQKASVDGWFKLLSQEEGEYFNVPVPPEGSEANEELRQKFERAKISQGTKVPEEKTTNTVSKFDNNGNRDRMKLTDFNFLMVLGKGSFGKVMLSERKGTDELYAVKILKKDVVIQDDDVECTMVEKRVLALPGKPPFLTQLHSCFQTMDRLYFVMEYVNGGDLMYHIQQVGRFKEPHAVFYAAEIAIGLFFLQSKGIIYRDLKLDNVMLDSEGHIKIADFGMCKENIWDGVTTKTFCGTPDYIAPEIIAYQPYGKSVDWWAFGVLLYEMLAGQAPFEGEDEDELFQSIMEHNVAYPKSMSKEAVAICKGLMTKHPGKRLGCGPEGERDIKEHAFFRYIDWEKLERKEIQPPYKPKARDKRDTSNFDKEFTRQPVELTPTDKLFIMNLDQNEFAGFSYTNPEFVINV
# [42] = biological target: Cyclin-dependent kinase 14/Cyclin-Y (Homo sapiens) (UniProt O94921+Q8ND76); assay: Inhibition of CDK14/cyclin-Y (unknown origin) at 1 uM; format: protein-complex assay
smiles,measurement,setting,value
OCCOCc1cn(CCNc2nonc2/C(=N/O)Nc2ccc(F)c(Br)c2)nn1,inhibition,[1],inactive
same,inhibition,[2],inactive
same,inhibition,Mus musculus [3],inactive
same,inhibition,[4],inactive
same,inhibition,[5],inactive
same,inhibition,Mus musculus [6],Active
same,inhibition,[7],inactive
same,inhibition,[8],inactive
same,inhibition,[9],inactive
same,inhibition,[10],inactive
same,inhibition,[11],inactive
same,inhibition,[12],inactive
same,inhibition,[13],inactive
same,inhibition,[14],inactive
same,inhibition,[15],inactive
same,inhibition,[16],inactive
same,inhibition,[17],inactive
same,inhibition in vivo at 50 mg/kg,CT26,69.7%
same,inhibition,[18],inactive
same,inhibition,[19],inactive
same,inhibition,[20],inactive
same,inhibition,[21],inactive
same,inhibition,[22],inactive
same,Papp B→A,[23],46 ×10⁻⁶ cm/s
same,inhibition,[24],inactive
same,inhibition,[25],inactive
same,inhibition,[26],inactive
same,inhibition,[27],Active
same,inhibition,[28],inactive
same,inhibition,[29],inactive
same,inhibition,[30],inactive
same,inhibition,[31],inactive
same,inhibition,[32],inactive
same,inhibition,[33],inactive
same,inhibition,[34],inactive
same,inhibition,[35],inactive
same,inhibition,[36],inactive
same,inhibition,[37],inactive
same,K,[38],0.0161 min⁻¹
same,inhibition,[39],inactive
same,inhibition,[40],inactive
same,inhibition,[41],inactive
same,inhibition,[42],inactive
